Data set [1] concerns promoter region of the gene encoding human apoAI. In words: Activity to enhance the production of human apoAI: apoAI promoter-luciferase reporter assay in HepG2 cells. It counts as cell-based. The settings on record: minimum effective dose: concentration that intensified luciferase activity twice compared to control, 24 hours incubation, 0 to 10 μg/mL, read-out: MED. Here is the method: Activity to Enhance the Production of Human apoAI
The promoter region of the gene encoding human apoAI was isolated and ligated upstream the structure gene of firefly luciferase to construct a reporter plasmid. The reporter plasmid and a marker plasmid conferring the neomycin resistance were co-infected to cell lines derived from human hepatoma, HepG2 cells, and the cell lines were incubated in a selection medium comprising DMEM medium containing 10% fetal calf serum supplemented with G418 (Final concentration: 0.7 mg/mL, Gibco) to give established strains that stably express the reporter molecule. The strains were seeded to a 96-well culture plates at a density of 50,000 cells per well, and incubated for 48 hours at 37° C. under 5% carbon dioxide. Then, a solution of the compounds according to the invention in DMSO was added to the wells at a final concentration of 0 to 10 μg/mL. After further incubation for 24 hours, the cells were added with a luciferase assay reagent (Piccagene LT 7.5 registered trade mark, Toyo Ink, KK), and the luciferase activity was determined using a luminometer (MicroBetaTM TRILUX, 1 sec/well, Wallac). The concentration of the compounds, which intensified the luciferase activity twice compared to that of control (DMSO without any compound of the invention added) was set as the minimal effective dose (MED).
Background: Reporter assays use an easily measured gene product as a stand-in for the process of interest.

Consider 32 compounds from US20040248950A1, “Apo ai expression accelerating agent” (priority 2004, published 2004).

Regarding `c1ccc(-c2cn(-c3ccccc3)nn2)cc1` [Compound 123TA14-2], the EC (2-fold luciferase activity) in data set [1] turned out to be 0.59 µM. As to `COc1ccc(-c2nc(-c3ccccc3)no2)cc1` [Compound 124OD35-12, 5-(4-Methoxyphenyl)-3-phenyl-1,2,4-oxadiazole], the EC (2-fold luciferase activity) in data set [1] came to 0.07 µM. For `COc1ccc(-c2nc(-c3ccncc3)no2)cc1` [Compound 124OD35-13], the EC (2-fold luciferase activity) in data set [1] was 0.7 µM. For `c1ccc(-c2nc(-c3ccc(-c4csnn4)cc3)no2)cc1` [Compound 124OD35-15], the EC (2-fold luciferase activity) in data set [1] is 0.18 µM. As to `c1ccc(Nc2nc(-c3ccccc3)ns2)cc1` [Compound 124TD35-6], the EC (2-fold luciferase activity) in data set [1] came to 0.93 µM.

By melting point is commonly meant the temperature of the solid-liquid transition. Take `CSc1ccc(-c2nnc(-c3ccccc3)o2)cc1` [Compound 134OD25-14]: the melting point lay in the range of 120 to 122 °C. Further, the EC (2-fold luciferase activity) in data set [1] came out at 0.56 µM. Compound `CN(C)c1ccc(-c2nnc(-c3ccccc3)o2)cc1` [Compound 134OD25-15, 2-(4-Dimethylaminophenyl)-5-phenyl-1,3,4-oxadiazole] came in with a melting point of 135 to 140 °C. Further, the EC (2-fold luciferase activity) in data set [1] stood at 0.27 µM.

In turn, `C(=C\c1nnc(-c2ccccc2)o1)/c1ccco1` [Compound 134OD25-23, 2-[2-(2-Furyl)vinyl]-5-[1,3,4]-oxadiazole] had a melting point of 127 to 130 °C. Also, the EC (2-fold luciferase activity) in data set [1] came out at 0.82 µM. `c1ccc(-c2nnc(-c3cc4ccccc4o3)o2)cc1` [Compound 134OD25-28] showed a melting point of 148 to 149 °C. Further, in data set [1], the EC (2-fold luciferase activity) was 1.1 µM. For the compound `COc1cccc(-c2nnc(-c3ccoc3)o2)c1` [Compound 134OD25-32, 2-(3-Furyl)-5-(3-methoxyphenyl)-[1,3,4]-oxadiazole], the melting point was 70 to 71 °C. Moreover, the EC (2-fold luciferase activity) in data set [1] turned out to be 2.8 µM. For the compound `CC(C)Oc1cccc(-c2nnc(-c3ccoc3)o2)c1` [Compound 134OD25-34], in data set [1], the EC (2-fold luciferase activity) came to 1.5 µM. For `Cc1cccc(-c2nnc(-c3cccc(C)c3)o2)c1` [Compound 134OD25-40, 2,5-Bis (3-tolyl)-1,3,4-oxadiazole], the melting point fell in the range of 82 to 83 °C. Moreover, the EC (2-fold luciferase activity) in data set [1] turned out to be 0.17 µM. Turning to `c1ccc(-c2nnc(-c3ccccn3)o2)cc1` [Compound 134OD25-46, 2-(2-Pyridyl)-5-phenyl-1,3,4-oxadiazole], the EC (2-fold luciferase activity) in data set [1] was found to be 0.37 µM. On to `COc1cccc(-c2nnc(N3CCOCC3)s2)c1` [Compound 134TD25-1], for which the EC (2-fold luciferase activity) in data set [1] was 0.89 µM. Consider `CC(C)Oc1cccc(-c2nnc(-c3ccoc3)s2)c1` [Compound 134TD25-4], for which the EC (2-fold luciferase activity) in data set [1] worked out at 0.58 µM.

As to `Cc1ccc(-c2nnc(-c3ccco3)s2)cc1` [Compound 134TD25-5, 2-(2-Furyl)-5-p-tolyl-[1,3,4]-thiadiazole], the melting point was 110 to 113 °C. Besides, in data set [1], the EC (2-fold luciferase activity) amounted to 0.98 µM. For the compound `c1ccc(-c2ccc(-c3ccccc3)o2)cc1` [Compound F25-10], the EC (2-fold luciferase activity) in data set [1] worked out at 2.5 µM.

As for `c1ccc(-c2cc(-c3ccccc3)on2)cc1` [IX35-1], the EC (2-fold luciferase activity) in data set [1] came to 0.75 µM. `COc1cccc(-c2cc(-c3ccoc3)on2)c1` [IX35-9, 5-(Furan-3-yl)-3-(3-methoxyphenyl)-isoxazole] came in with a melting point of 36 to 37 °C. In data set [1], the EC (2-fold luciferase activity) stood at 0.53 µM. On to `COc1ccc(-c2nc(-c3ccccc3)co2)cc1` [OX24-5], for which the EC (2-fold luciferase activity) in data set [1] is 0.32 µM.

With `c1ccc(-c2coc(-c3ccccc3)n2)cc1` [OX24-8], the EC (2-fold luciferase activity) in data set [1] was 2.9 µM. As to `COc1ccc(-c2cc(-c3ccc(OC)cc3)n(C)n2)cc1` [PZ35-4, 3,5-Di(4-methoxyphenyl)-1-methylpyrazole], in data set [1], the EC (2-fold luciferase activity) amounted to 0.41 µM. The same measure, in the same setting: as for `c1ccc(-c2cc(-c3ccccn3)[nH]n2)nc1` [PZ35-5], the figure is 1.5 µM; as for `Cc1ccc(-c2csc(-c3ccccc3)n2)cc1` [TZ24-3], 0.45 µM; as for `COc1ccc(-c2nc(-c3ccccc3)cs2)cc1` [TZ24-5, 2-(4-Methoxyphenyl)-4-phenylthiazole], 3.7 µM.

For `COc1ccc(-c2nc(-c3ccco3)cs2)cc1` [TZ24-6, 4-(2-Furyl)-2-(4-methoxyphenyl)thiazole], the EC (2-fold luciferase activity) in data set [1] came out at 1.2 µM. On the same count and under the same terms, as for `COc1ccc(-c2nc(-c3ccccn3)cs2)cc1` [TZ24-11], the figure is 1.2 µM. For `Cc1ccc(-n2nnc(-c3ccc(Cl)cc3)n2)cc1` [TZ-1], in data set [1], the EC (2-fold luciferase activity) is 0.33 µM. Same read-out and setting: to `Cc1ccc(-c2nnn(-c3ccc(Cl)cc3)n2)cc1` [TZ-2] belongs 0.42 µM; to `Cc1ccc(-n2nnc(-c3ccccc3)n2)cc1` [TZ-3], 0.2 µM; to `Clc1ccc(-c2nnn(-c3ccc(Cl)cc3)n2)cc1` [TZ-4], 0.53 µM. Same read-out and setting: to `COc1ccc(-n2nnc(-c3ccccc3)n2)cc1` [TZ-7] belongs 0.22 µM.
